The values below are quoted from earlier work in patent US8445528B2, “Dendrimer conjugates” (priority 2008, dated 2013).

For this data set the following is noted: more cytotoxic than IRINOTECAN

Turning to `CC[C@@]1(O)C(=O)OCc2c1cc1n(c2=O)Cc2cc3cc(O)ccc3nc2-1` [SN-38, 10-hydroxycamptothecin], the “cytotoxicity relative to IRINOTECAN” value is listed as 1000 fold.
